According to PubChem BioAssay AID2060624 (Molecular Pharmacology Branch, DTP, NCI, 2025):

System: 217524-143-R1-J4-PDC spheroids with HUVEC/MSC, viability
Test: Anticancer human tumor 217524-143-R1-J4-PDC patient-derived pancreatic carcinoma cell line growth inhibition [CLK]
Settings: for IC50: curve of first compound; for viability, T/C: stronger effect = lower value; active means viability on the fitted dose curve at most 10% of control; inactive means the rest
Text: A high-throughput screen of multi-cell type tumor spheroids was designed to identify active combinations of […] and targeted small molecules. Complex spheroids include a stromal component modeled by human endothelial cells (HUVEC) and fibroblasts modeled by human mesenchymal stem cells (MSCs). The concentration ranges selected for each drug and investigational agent were based upon clinically achievable concentrations if the clinical Cmax of the agent was known.
Compounds. The drugs and investigational agents: cirtuvivint (SM08502; NSC835563), CC-671 (NSC850746), vemurafenib (NSC761431), tapotoclax (NSC804041), sotorasib (NSC818433), adagrasib (NSC831453), MRTX-1133 (NSC836407), BAY2416964 (NSC825713), copanlisib (NSC816437), inavolisib (NSC800729), abemaciclib (NSC768073), osimertinib (NSC779217), entinostat (NSC756642), eltanexor (KPT-8602, NSC794443), venetoclax (NSC766270), ceralasertib (NSC777638), bortezomib (NSC756655), olaparib (NSC753686), talazoparib (NSC767125), alisertib (NSC759677), peposertib (NSC802822), gemcitabine (NSC613327), 5-fluorouracil (NSC19893), SN-38 (NSC673596), oxaliplatin (NSC266046), paclitaxel (NSC125973), and doxorubicin (NSC123127), were obtained from the National Cancer Institute (NCI) Developmental Therapeutics Program Chemical Repository. The FDA-approved anticancer drug set is available from the Developmental Therapeutics Program at https://dtp.cancer.gov/organization/dscb/obtaining/available plates.htm. […] The stock solutions were prepared in dimethyl sulfoxide (DMSO, Sigma-Aldrich, St. Louis, MO, cat. D2650), except for the platinum complexes which were prepared in saline (Quality Biological, Gaithersburg, MD, cat. 114-055-101), at 800-fold the tested concentration and stored at -70 degrees C prior to their use. All drugs and investigational agents were tested over a range starting from a high concentration at or near the clinical Cmax and decreasing in half-log increments. If the clinical Cmax for an agent had not been determined, the highest concentration tested was 10 microM.
Cell Culture. All cells were maintained in an incubator at 37 degrees C and 5% CO2 with 95% humidity. The PDC lines were cultured according to standard operating procedures established by the NCI PDMR. Briefly, all PDCs were thawed and cultured in Matrigel-coated flasks prepared with a working solution of 1X Ham's F-12 nutrient mix, without supplementation (Invitrogen, Waltham, MA, cat. 11765054), 100 U/mL penicillin-streptomycin (Invitrogen, cat. 15140122), and 2.5% Matrigel (Corning Inc., Corning, NY, cat. 354248) for the first three passages. The 947758-054-R-J2-PDC line was cultured in 6B/Colon 1A media, which includes advanced DMEM/F-12 (Thermo Fisher Scientific, cat. 12634028), 10 mM HEPES (Thermo Fisher Scientific, cat. 15630080), 1X GlutaMAX supplement (Thermo Fisher Scientific, cat. 35050061), 0.1 mg/mL primocin (InvivoGen, cat. ant-pm-2), 10% defined fetal bovine serum, heat inactivated (HyClone Laboratories Inc., cat. SH30070.03HI), 1.25 mM N-Acetyl-L-cysteine (Sigma-Aldrich, cat. A9165), 10 mM nicotinamide (Sigma-Aldrich, cat. N0636), 1X B-27 supplement (Thermo Fisher Scientific, cat. 17504044), 1X N-2 supplement (Thermo Fisher Scientific, cat. 17502048), and 10 microM Y-27632 dihydrochloride (Tocris Bioscience, cat. 1254). The 876862-298-R-J1-PDC was cultured in 6E media, which includes all 6B/Colon 1A media components plus 50% L-WRN conditioned media (ATCC, cat. CRL-3276), 50 ng/mL recombinant human EGF recombinant protein (hEGF; Thermo Fisher Scientific, cat. PHG0311), 10 ng/mL recombinant human fibroblast growth factor 10 (hGFG-10; PeproTech, cat. 100-26), 1 ng/mL recombinant human fibroblast growth factor 2 (hFGF-2; PeproTech, cat. 100-18B), and 1 µM prostaglandin E2 (PGE2; Tocris, cat. 2296). The 227483-062-R1-J1-PDC line was cultured in Panc media, containing all 6E components except hFGF-2, with the addition of 500 nM SB-431542 (Selleckchem, cat. S1067) and 10 nM gastrin (Tocris, cat. 3006). […]

[1] = second compound 0.0316 µM, first compound 0.0316 µM
[2] = second compound 0.0316 µM, first compound 0.1 µM
[3] = second compound 0.0316 µM, first compound 0.316 µM
[4] = second compound 0.0316 µM, first compound 1 µM
[5] = second compound 0.0316 µM, first compound 3.16 µM
[6] = second compound 0.0316 µM, first compound 10 µM
[7] = second compound 0.1 µM, first compound 0.0316 µM
[8] = second compound 0.1 µM, first compound 0.1 µM
[9] = second compound 0.1 µM, first compound 0.316 µM
[10] = second compound 0.1 µM, first compound 1 µM
[11] = second compound 0.1 µM, first compound 3.16 µM
[12] = second compound 0.1 µM, first compound 10 µM
[13] = second compound 0.316 µM, first compound 0.0316 µM
[14] = second compound 0.316 µM, first compound 0.1 µM
[15] = second compound 0.316 µM, first compound 0.316 µM
[16] = second compound 0.316 µM, first compound 1 µM
[17] = second compound 0.316 µM, first compound 3.16 µM
[18] = second compound 0.316 µM, first compound 10 µM
[19] = second compound 1 µM, first compound 0.0316 µM
[20] = second compound 1 µM, first compound 0.1 µM
[21] = second compound 1 µM, first compound 0.316 µM
[22] = second compound 1 µM, first compound 1 µM
[23] = second compound 1 µM, first compound 3.16 µM
[24] = second compound 1 µM, first compound 10 µM
[25] = second compound 3.16 µM, first compound 0.0316 µM
[26] = second compound 3.16 µM, first compound 0.1 µM
[27] = second compound 3.16 µM, first compound 0.316 µM
[28] = second compound 3.16 µM, first compound 1 µM
[29] = second compound 3.16 µM, first compound 3.16 µM
[30] = second compound 3.16 µM, first compound 10 µM
[31] = second compound 10 µM, first compound 0.0316 µM
[32] = second compound 10 µM, first compound 0.1 µM
[33] = second compound 10 µM, first compound 0.316 µM
[34] = second compound 10 µM, first compound 1 µM
[35] = second compound 10 µM, first compound 3.16 µM
[36] = second compound 10 µM, first compound 10 µM
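Further: spheroids exposed to agents for seven days before reading.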

C#Cc1c(F)ccc2cc(O)cc(-c3ncc4c(N5CC6CCC(C5)N6)nc(OCC56CCCN5CC(F)C6)nc4c3F)c12 (stereo unspecified) + CN1CCN(c2cc(C(=O)Nc3cc4cc(-c5cnn(C)c5)ccc4cn3)ccn2)CC1
inactive: viability, T/C [1] 76.1% | viability, T/C [2] 74.4% | viability, T/C [3] 65.5% | viability, T/C [4] 85.1% | viability, T/C [5] 81.1% | viability, T/C [6] 55% | viability, T/C [7] 53.6% | viability, T/C [8] 46.2% | viability, T/C [9] 53.2% | viability, T/C [10] 55.5% | viability, T/C [11] 49.3% | viability, T/C [12] 37% | viability, T/C [13] 28.3% | viability, T/C [14] 23.9% | viability, T/C [15] 25.2% | viability, T/C [16] 21.6% | viability, T/C [17] 24.8% | viability, T/C [18] 18%
< 31.6 nM: IC50 (second compound 0.316 µM) | IC50 (second compound 1 µM) | IC50 (second compound 3.16 µM) | IC50 (second compound 10 µM)
> 10000 nM: IC50 (second compound 0.0316 µM)
active: viability, T/C [19] 2.18% | viability, T/C [20] 2.28% | viability, T/C [21] 3.15% | viability, T/C [22] 2.36% | viability, T/C [23] 1.66% | viability, T/C [24] 2.26% | viability, T/C [25] 0.79% | viability, T/C [26] 0.88% | viability, T/C [27] 0.86% | viability, T/C [28] 0.96% | viability, T/C [29] 0.86% | viability, T/C [30] 0.79% | viability, T/C [31] 0.25% | viability, T/C [32] 0.25% | viability, T/C [33] 0.2% | viability, T/C [34] 0.23% | viability, T/C [35] 0.23% | viability, T/C [36] 0.43%
3210 nM: IC50 (second compound 0.1 µM)

C=C(F)C(=O)N1CCN(c2nc(OCC3CCCN3C)nc3c2CCN(c2cccc4cccc(Cl)c24)C3)CC1CC#N (stereo unspecified) + CN1CCN(c2cc(C(=O)Nc3cc4cc(-c5cnn(C)c5)ccc4cn3)ccn2)CC1
inactive: viability, T/C [1] 71.2% | viability, T/C [2] 89.9% | viability, T/C [3] 91.9% | viability, T/C [4] 87.9% | viability, T/C [5] 82.2% | viability, T/C [7] 61.6% | viability, T/C [8] 54.7% | viability, T/C [9] 53.9% | viability, T/C [10] 50.8% | viability, T/C [11] 49.1% | viability, T/C [13] 25% | viability, T/C [14] 24.5% | viability, T/C [15] 31% | viability, T/C [16] 22.8% | viability, T/C [17] 18.4% | viability, T/C [18] 1.05%
active: viability, T/C [6] 4.47% | viability, T/C [12] 3.1% | viability, T/C [19] 1.86% | viability, T/C [20] 2.01% | viability, T/C [21] 2.61% | viability, T/C [22] 1.74% | viability, T/C [23] 1.47% | viability, T/C [24] 0.1% | viability, T/C [25] 0.87% | viability, T/C [26] 1.12% | viability, T/C [27] 0.66% | viability, T/C [28] 0.73% | viability, T/C [29] 0.71% | viability, T/C [30] 0.13% | viability, T/C [31] 0.3% | viability, T/C [32] 0.27% | viability, T/C [33] 0.3% | viability, T/C [34] 0.31% | viability, T/C [35] 0.44% | viability, T/C [36] 0.22%
5100 nM: IC50 (second compound 0.0316 µM)
2300 nM: IC50 (second compound 0.1 µM)
< 31.6 nM: IC50 (second compound 0.316 µM) | IC50 (second compound 1 µM) | IC50 (second compound 3.16 µM) | IC50 (second compound 10 µM)

CC(CO)NC(=O)c1cc(-c2ccc(Cl)cc2)nn(-c2cnn(C)c2)c1=O (stereo unspecified) + CN1CCN(c2cc(C(=O)Nc3cc4cc(-c5cnn(C)c5)ccc4cn3)ccn2)CC1
< 31.6 nM: IC50 (second compound 0.316 µM) | IC50 (second compound 1 µM) | IC50 (second compound 3.16 µM) | IC50 (second compound 10 µM)
inactive: viability, T/C [1] 81% | viability, T/C [2] 83.5% | viability, T/C [3] 68.8% | viability, T/C [4] 71.7% | viability, T/C [5] 92% | viability, T/C [6] 54.1% | viability, T/C [7] 73.4% | viability, T/C [8] 53.2% | viability, T/C [9] 47.8% | viability, T/C [10] 51% | viability, T/C [11] 53.9% | viability, T/C [12] 39.6% | viability, T/C [13] 14.4% | viability, T/C [14] 19.4% | viability, T/C [15] 18.1% | viability, T/C [16] 18.6% | viability, T/C [17] 19.8% | viability, T/C [18] 16.7%
> 10000 nM: IC50 (second compound 0.0316 µM)
229 nM: IC50 (second compound 0.1 µM)
active: viability, T/C [19] 1.96% | viability, T/C [20] 2.25% | viability, T/C [21] 2.62% | viability, T/C [22] 1.95% | viability, T/C [23] 1.85% | viability, T/C [24] 1.4% | viability, T/C [25] 1.05% | viability, T/C [26] 1.27% | viability, T/C [27] 0.89% | viability, T/C [28] 0.99% | viability, T/C [29] 0.97% | viability, T/C [30] 0.84% | viability, T/C [31] 0.26% | viability, T/C [32] 0.3% | viability, T/C [33] 0.26% | viability, T/C [34] 0.29% | viability, T/C [35] 0.33% | viability, T/C [36] 0.27%
